Molecular target: 5'-nucleotidase (Homo sapiens, UniProt P21589)
Experiment: Biochemical Assay: Assay Reaction ConditionsAssay Volume: 70 μlReaction Volume: 50 μlCD73: 0.3208 nMAMP: 15 μMAssay Buffer: 25 mM Tris-HCL, pH 7.4, 0.01% Brij-35, 0.01% BSA, 5 mM MgCl2Assay Procedure:Used 384 clear plate.Made dose titration of testing compounds in assay buffer, 10 points ½ log titrations in duplicates starting at 100 μM.Added 25 μl of CD73 to each well for a final concentration of 320 pM.Incubated at RT for 15 min.Added 25 μl of AMP to each well for a final concentration of 15 μM.Incubated at RT for 10 min.Added 10 μl of Malachite Green Reagent A, incubate at RT for 10 min.Added 10 of Malachite Green Reagent B, incubate at RT for 45 min.Read the Absorbance on Envision plate reader using excitation filter: Cy5 620 nM.The ability of the compounds disclosed herein to inhibit CD73 activity was quantified and the respective IC50 values were determined.

5'-nucleotidase, sequence (P21589 whole entry): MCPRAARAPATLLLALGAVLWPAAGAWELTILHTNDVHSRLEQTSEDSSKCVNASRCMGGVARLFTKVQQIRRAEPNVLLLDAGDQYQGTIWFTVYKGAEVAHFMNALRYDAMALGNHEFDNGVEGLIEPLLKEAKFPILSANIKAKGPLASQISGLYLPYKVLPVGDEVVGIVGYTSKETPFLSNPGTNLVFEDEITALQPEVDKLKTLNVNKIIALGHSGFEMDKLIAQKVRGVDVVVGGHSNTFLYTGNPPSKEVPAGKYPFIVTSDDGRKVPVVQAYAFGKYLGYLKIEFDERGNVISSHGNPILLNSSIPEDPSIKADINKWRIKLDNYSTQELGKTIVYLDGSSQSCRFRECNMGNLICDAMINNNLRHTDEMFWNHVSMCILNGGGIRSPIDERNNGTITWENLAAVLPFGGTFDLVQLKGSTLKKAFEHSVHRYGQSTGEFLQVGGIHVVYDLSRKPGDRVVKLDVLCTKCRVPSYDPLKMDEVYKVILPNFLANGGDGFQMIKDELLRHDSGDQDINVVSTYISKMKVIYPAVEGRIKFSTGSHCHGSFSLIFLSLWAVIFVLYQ

O=P(O)(O)[C@H](CO)OC[C@H]1O[C@@H](n2ncc3c(NC4CCCC4)nc(Cl)nc32)[C@H](O)[C@@H]1O (single isomer, unassigned)
IC50: < 100 nM

— ChEMBL document CHEMBL5729105, “CD73 inhibitors” (2022)
